From EP4640234A1, “PHARMACEUTICAL COMPOSITION FOR PREVENTING OR TREATING GRAFT-VERSUS-HOST DISEASE CONTAINING GLP-2 DERIVATIVE OR LONG-ACTING CONJUGATE THEREOF” (Hanmi Pharm. Co., Ltd., priority 2022, dated 2024)

Test system: SR-GVHD model induced by allogeneic transplantation
Experiment: SR-GVHD mouse allogeneic transplantation model, switching from steroid to conjugate (Example 4)
Format: in vivo, BALB/C mice (recipients)
Conditions: Group 2: Apraglutide 469 µg/kg once every other day, subcutaneously, from 3 days after splenocyte injection; excipient group 21.4%; FIG. 4
Procedure: In order to construct a mouse allogeneic transplantation model as a graft-versus-host disease (GVHD) model, female donor mice C57BL/6j were purchased from OrientBio (Korea), and female recipient mice BALB/C were purchased from DBL (Korea). The mice were raised in a sterile environment with a 12-h light/dark cycle. Food and water were provided ad libitum, and all procedures were performed under the approval of the Animal Experimentation Committee.
In order to mobilize hematopoietic stem cells (HSCs) into peripheral blood from 13-week-old C57BL/6j mice (donors), 10 µg of G-CSF (granulocyte-colony stimulating factor) (PeproTech, USA) was injected subcutaneously for 5 days, and then 1.5 × 10^7 splenocytes were collected. The 1.5 × 10^7 splenocytes (200 µL volume) were injected into BALB/C mice (recipients) through the tail vein. […]
The numerical value expressed as the dose of the GLP-2 derivative long-acting conjugate herein is based on the value acquired by excluding the mass of the polyethylene glycol linker moiety from the total mass of the GLP-2 derivative long-acting conjugate used, that is, the sum of the masses of only the polypeptide moieties.
The onset signs were evaluated using the same criteria as in Table 3, the survival rate was determined, and the small intestine and colon tissues were harvested and pathological changes were observed.

## Apraglutide
  survival rate on day 25: 35.7%
